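48-hour exposure; five concentrations; linearly interpolated endpoints. The concentration for 50% growth inhibition is given as GI50. The concentration for full growth arrest is given as TGI.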
What was measured:
Assay in all cases: DTP human tumour cell line panel, 48 h
HT29 colon = tested on: HT29 colon
DU-145 prostate = tested on: DU-145 prostate
HS 578T breast = tested on: HS 578T breast
KM12 colon = tested on: KM12 colon
OVCAR-3 ovarian = tested on: OVCAR-3 ovarian
T-47D breast = tested on: T-47D breast
MALME-3M melanoma = tested on: MALME-3M melanoma
A549 NSCLC = tested on: A549 NSCLC
UACC-257 melanoma = tested on: UACC-257 melanoma
SNB-19 CNS = tested on: SNB-19 CNS

Row | Compound | GI50 (HT29 colon) [µM] | TGI (HT29 colon) [µM] | GI50 (DU-145 prostate) [µM] | TGI (DU-145 prostate) [µM] | GI50 (HS 578T breast) [µM] | TGI (HS 578T breast) [µM] | GI50 (KM12 colon) [µM] | TGI (KM12 colon) [µM] | GI50 (OVCAR-3 ovarian) [µM] | TGI (OVCAR-3 ovarian) [µM] | GI50 (T-47D breast) [µM] | TGI (T-47D breast) [µM] | GI50 (MALME-3M melanoma) [µM] | TGI (MALME-3M melanoma) [µM] | GI50 (A549 NSCLC) [µM] | TGI (A549 NSCLC) [µM] | GI50 (UACC-257 melanoma) [µM] | TGI (UACC-257 melanoma) [µM] | GI50 (SNB-19 CNS) [µM] | TGI (SNB-19 CNS) [µM]
1 | COc1ccc(NC(=O)n2nc(/C=C\c3ccc(O)c(OC)c3)cc2/C=C\c2ccc(O)c(OC)c2)cc1 | 3.52 | 11 | 3.99 | 24.6 | 6.77 | 61.9 | 3.19 | 20.7 | 2.98 | 8.4 | 3.68 | 25.8 | 3.66 | 38.6 | 5.5 | 97.9 | 16.7 | 64.8 | 5.28 | 86.7
2 | CC[C@@]12C=CCN3CC[C@]4(c5cc(NC(=O)COc6cc(OCC(=O)Nc7cc8c(cc7OC)N(C)[C@H]7[C@@](O)(C(=O)OC)[C@H](OC(C)=O)[C@]9(CC)C=CCN%10CC[C@]87[C@@H]%109)cc7oc(-c8ccccc8)cc(=O)c67)c(OC)cc5N(C)[C@@H]4[C@](O)(C(=O)OC)[C@H]1OC(C)=O)[C@H]32 | 3.42 | > 100 | 4.46 | > 100 | 3.63 | > 100 | – | – | 2.58 | 9.72 | 57.5 | > 100 | > 100 | > 100 | 7.14 | > 100 | > 100 | > 100 | 5.71 | > 100
3 | Clc1ccc2ns[s+]c2c1 | – | > 100 | – | > 100 | – | > 100 | – | > 100 | – | > 100 | – | 92 | – | > 100 | – | > 100 | – | > 100 | – | > 100
4 | CNCCNc1nc2ccccc2c2c(=O)c3cc(OC)ccc3sc12 | 1.52 | 3.26 | 1.73 | 3.16 | 1.84 | 4.33 | 1.8 | 3.48 | 1.84 | 3.43 | 1.71 | 3.66 | 1.82 | 3.31 | 1.71 | 3.41 | 1.89 | 3.75 | – | –
5 | COc1ccc([C@@H](O)c2cc(-c3ncnc4cc(N5CCOCC5)ccc34)c(F)cc2Cl)nn1 | 1.97 | 20.9 | 3.89 | > 100 | 0.75 | 15.3 | 5.47 | 24.1 | 1.41 | 20.3 | 0.228 | 1.44 | 6.4 | 55.8 | 2.77 | 21 | 1.99 | 30 | 10.8 | > 100
6 | Nc1cc2[nH]cnc2c(=O)[nH]1 | – | > 300 | – | > 300 | – | > 300 | – | > 300 | – | 92.4 | – | > 300 | – | 298 | – | > 300 | – | > 300 | – | > 300
7 | COc1nc(C)cc2c(=O)n(-c3ccccc3)n(CC(O)CN3CCN(c4ccc(Cl)cc4)CC3)c(=O)c12 (stereo unspecified) | > 50 | > 50 | > 50 | > 50 | 18.8 | > 50 | > 50 | > 50 | 34.3 | > 50 | > 50 | > 50 | > 50 | > 50 | > 50 | > 50 | – | – | 17.5 | > 50
8 | COC(=O)[C@]1(C)CCC[C@@]2(C)[C@@H]3C[C@@H]4[C@H]5C[C@@]3(CC[C@@H]21)C[C@@]45C | – | 27.6 | – | 65.9 | – | 47.9 | – | – | – | 32.7 | – | 62.2 | – | 37.3 | – | 28 | – | 28.8 | – | 26.9
9 | CNCCNc1nc2ccccc2c2c(=O)c3cc(F)ccc3sc12 | 1.59 | 3.2 | 1.71 | 3.15 | 2 | 4.79 | 1.74 | 3.25 | 1.7 | 3.25 | 1.8 | 4.12 | 1.67 | 3.1 | 1.65 | 3.29 | 1.73 | 3.25 | – | –
10 | COC(=O)c1cc(-c2ccc(OC)cc2)[nH]c1N/N=C/c1c(Cl)cccc1Cl | 0.255 | 1.26 | 0.229 | 0.831 | 0.19 | 2.82 | 0.141 | 6.75 | – | – | 0.505 | > 31.8 | 0.316 | – | 0.361 | 4.48 | 0.409 | 9.17 | 0.358 | 11.5
11 | CC[C@H](Nc1nc(N)nc(C2CC2)c1C#N)c1nc2cccc(NCc3ccc(C(=O)NO)cc3)c2c(=O)n1-c1ccccc1 | – | – | 1.95 | 4.56 | 2.8 | 9.51 | 2.07 | 4.69 | 1.73 | 4.55 | 1.82 | 5.78 | 1.78 | 4.61 | 1.93 | 4.52 | 2.05 | 6.16 | 2.18 | 6.94

From PubChem BioAssay (NCI)
